Consider four molecules from patent US9717742B2, “Oxysterol analogue OXY133 induces osteogenesis and hedgehog signaling and inhibits adipogenesis” (The Regents of the University of California, priority 2012, dated 2017).

Assay [1] relates to M2-10B4 (M2) bone marrow stromal cells. Description: Alkaline phosphatase (ALP) activity assay on whole cell extracts, M2 cells. In kind it is cell-based, mouse. Conditions: data not shown.
Assay [2] relates to Lewis rats. Conditions: prior studies (15), 4 weeks; cited from earlier work.
In assay [3] the test system is 8×-Gli luciferase reporter (Hedgehog signaling). Description: Gli-dependent luciferase reporter assay in C3H cells. In kind it is cell-based, mouse. As to conditions: 48 hours. Here is the method:
After 4 days ALP activity, and after 7 days the expression of osteogenic genes ALP, BSP, and OSX was measured by quantitative real-time PCR (p<0.001 for control vs. Oxy133, and for Oxy133 vs. Oxy133+Cyc for ALP activity and for the expression of all genes shown). […] (p<0.001 for control vs. Oxy133 at 100 nM, 250 nM, and 1 μM Oxy133). (FIG. 4C) The amount of YFP-Smo captured by 20S beads or control beads was compared in samples containing either no competitor or 50 μM of a free competitor sterol (20S, Oxy133 or Oxy16). The YFP-Smo captured by the beads was measured by Western blot (top) and plotted (bottom) relative to the amount captured in the binding reaction with no competitor.
Cells at 70% confluence in 24-well plates were transiently transfected with Gli-dependent firefly luciferase and Renilla luciferase vectors as we have previously described (17, 18). […] Luciferase activity was assessed using the Dual Luciferase Reporter Assay System (Promega Corporation, Madison, Wis.) according to manufacturer's instructions after cells were treated for 48 hours.
Background: Reporter assays use an easily measured gene product as a stand-in for the process of interest.

For assay [4], the system named is Lewis rats. Description: Posterolateral intertransverse process spinal fusion at L4-L5 in rats. In kind it is in vivo, rat. As to conditions: for Fusion Rates (%) Manual Palpation / Fusion Rates (%) Micro-CT / Fusion Rates (%) X-ray: at sacrifice (8 weeks); for bilateral fusion on radiographs: four weeks; for trabecular thickness: micro-CT, 8 weeks. Here is the method: Thirty-eight 8-week-old male Lewis rats were purchased from Charles River Laboratories (Wilmington, Mass.) and were maintained and housed at the UCLA vivarium in accordance with regulations set forth by the UCLA Office of Protection of Research Subjects. The study was performed under a protocol approved by the UCLA Animal Research Committee (ARC).
Animals were pre-medicated with sustained release buprenorphine thirty minutes prior to surgery and anesthetized with 2% isoflurane administered in oxygen (1 L/min). The surgical site was shaved and disinfected with Betadine and 70% ethanol. Posterolateral intertransverse process spinal fusion at L4-L5 was performed as in prior studies (21, 22). The L6 vertebral body was identified using the iliac crest as a landmark. A 4-cm longitudinal midline incision was made through the skin and subcutaneous tissue over L4-L5 down to the lumbodorsal fascia. A 2-cm longitudinal paramedial incision was then made in the paraspinal muscles bilaterally to expose the transverse processes of L4-L5, which were decorticated with a high-speed burr. The surgical site was then irrigated with sterile saline, and 5 mm×5 mm×13 mm pieces of collagen sponge (Helistat, Integra Life Sciences) containing dimethyl sulfoxide (DMSO) control, rhBMP-2, or Oxy133 were placed bilaterally, with each implant spanning the transverse processes. The implants were then covered with the overlying paraspinal muscles and the lumbodorsal fascia and skin were closed with 4-0 Prolene sutures (Ethicon, Inc., Somerville, N.J.). Animals were allowed to ambulate, eat, and drink ad libitum immediately after surgery.
Posteroanterior radiographs of the lumbar spine were taken on each animal at 4, 6, and 8 weeks after surgery using a Faxitron LX60 cabinet radiography system and evaluated blindly by two independent observers employing the following standardized scale: 0, no fusion; 1, unilateral fusion; and 2, complete bilateral fusion. The scores from the observers were added together and only a score of 4 was considered as complete fusion.
Eight weeks after surgery, animals were euthanized and the spines were surgically removed and evaluated by two blinded independent observers for motion between levels. Nonunion was recorded if motion was observed between the facets or transverse processes on either side. Complete fusion was recorded if no motion was observed bilaterally. Spines were scored as either fused or not fused. Unanimous agreement was required to consider complete fusion.
Each removed spine was analyzed by high resolution micro-computed tomography (micro-CT), using a SkyScan 1172 scanner (SkyScan, Belgium) with a voxel isotropic resolution of 20 μm and an X-ray energy of 55 kVp and […] to further assess the fusion rate and observe the fusion mass as we have previously reported (15). Three hundred and sixty projections were acquired over an angular range of 180° with steps of 0.5 with an exposure time of 220 msec/slice. Five frames were averaged at each rotation step to get better signal to noise ratio. A 0.5 mm aluminum filter was used to narrow down the X-ray beam frequency in order to minimize beam hardening artifact. Virtual image slices were reconstructed using the cone-beam reconstruction software version 2.6 based on the Feldkamp algorithm (SkyScan). These settings produced serial cross-sectional 1024×1024 pixel images. Sample re-orientation and 2D visualization were performed using DataViewer (SkyScan). 3D visualization was performed using Dolphin Imaging version 11 (Dolphin Imaging & Management Solutions, Chatsworth, Calif.). Fusion was defined as the bilateral presence of bridging bone between the L4 and L5 transverse processes. The reconstructed images were judged to be fused or not fused by two experienced independent observers.

Turning to `CC1=C2C[C@H]3[C@@H](CC=C4C[C@@H](O)CC[C@@]43C)[C@@H]2CC[C@]12O[C@@H]1C[C@H](C)CN[C@H]1[C@H]2C` [Cyclopamine], in assay [1], the “inhibition of Oxy133-induced ALP activity and expression of osteogenic markers” value is given as “completely inhibited”.
With `CC(C)CCCC(C)(O)C1CCC2C3CC(O)C4CC(O)CCC4(C)C3CCC21C` (stereo not shown) [Oxy34], the “fusion at the 4 week time point in prior studies” value in the assay on Lewis rats [2] is listed as “no fusion”.
`C=C(C)CCC[C@](C)(O)[C@H]1CC[C@H]2[C@@H]3C[C@H](O)[C@H]4C[C@@H](O)CC[C@]4(C)[C@H]3CC[C@@]21C` [Oxy49]: in the assay with Lewis rats [2], the “fusion at the 4 week time point in prior studies” value was “no fusion”.
Take `CCCCCC[C@](C)(O)[C@H]1CC[C@H]2[C@@H]3C[C@H](O)[C@H]4C[C@@H](O)CC[C@]4(C)[C@H]3CC[C@@]21C` [Oxy133, (3S,5S,6S,8R,9S,10R,13S,14S,17S) 17-((S)-2-hydroxyoctan-2-yl)-10,13-dimethylhexadecahydro-1H-cyclopenta[a]phenanthrene-3,6-diol]: in assay [3] (100 nM), the “induction of Gli-dependent reporter activity” value is reported as 5 fold. For the same molecule, the “induction of Gli-dependent reporter activity” value in assay [3] (at 1 Oxy133 (unit not given)) turned out to be 17 fold. For the same molecule, in the assay on Lewis rats [4] (Oxy133 0.2 mg), the “Fusion Rates (%) Manual Palpation” value amounted to 0%, the “Fusion Rates (%) Micro-CT” value is 0% and the “Fusion Rates (%) X-ray” value was found to be 0%. In addition, in the assay with Lewis rats [4] (Oxy133 2 mg), the “bilateral fusion, micro-CT” value is 4/8; the “Fusion Rates (%) Manual Palpation” value is given as 50%; the “Fusion Rates (%) Micro-CT” value is reported as 50%; the “Fusion Rates (%) X-ray” value came out at 50%. For the same molecule, in the assay on Lewis rats [4] (Oxy133 2 mg), the “bilateral fusion on radiographs” value is reported as 3/8 and the “trabecular thickness” value came out at 134.008. Moreover, the “bilateral fusion confirmed on manual palpation” value in the assay on Lewis rats [4] (Oxy133 2 mg, after sacrifice) was 4/8. The fusion on radiographs with Lewis rats [4] (Oxy133 2 mg, eight weeks) is recorded as 4/8. Also, the “bilateral fusion by manual assessment” value in the assay on Lewis rats [4] (Oxy133 20 mg, after sacrifice) was 6/7. Moreover, in the assay with Lewis rats [4] (Oxy133 20 mg), the “Fusion Rates (%) Manual Palpation” value is recorded as 86%, the “Fusion Rates (%) Micro-CT” value was 100%, the “Fusion Rates (%) X-ray” value worked out at 100% and the “bilateral fusion on radiographs” value is 6/7. Also, the “trabecular thickness” value with Lewis rats [4] (Oxy133 20 mg) is on record as 124.737.
